Test results as given in US7101878B1 (Agouron Pharmaceuticals, Inc., priority 1998, dated 2006).
Read-outs that look alike come from different tables or passages of the source.

Key:
[1] = Pharmacokinetic studies / bioavailability in rats; format: in vivo, rat; conditions: rat male; for half-life / Cmax / Tmax: male, rat, plasma; for half-life: iv; for Cmax / Tmax: po
bovine GnRH receptor = biological target: T1, bovine GnRH receptor (Bos taurus, UniProt P32236); assay: Radioligand binding, 125I-GnRH-A, bovine pituitary membranes
T1 construct: membranes were prepared from bovine pituitary; from tissue; host or cells: bovine pituitary
T1 sequence (P32236 1-328): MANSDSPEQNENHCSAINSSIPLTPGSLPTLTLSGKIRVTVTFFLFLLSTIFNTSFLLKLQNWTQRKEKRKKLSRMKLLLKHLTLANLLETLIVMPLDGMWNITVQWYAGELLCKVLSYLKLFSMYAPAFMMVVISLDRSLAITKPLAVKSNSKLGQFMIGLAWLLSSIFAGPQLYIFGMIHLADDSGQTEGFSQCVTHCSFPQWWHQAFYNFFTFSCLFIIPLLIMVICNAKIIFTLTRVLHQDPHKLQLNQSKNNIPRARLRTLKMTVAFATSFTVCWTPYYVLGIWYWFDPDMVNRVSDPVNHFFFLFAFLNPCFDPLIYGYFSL
Protocol: All compounds were diluted in 1% DMSO (final assay concentration) in binding assay buffer. […] Reactions were terminated by rapid filtration onto 96-well Packard GF/C filters soaked in 0.1% polyethyleneimine. Filters were washed three times with PBS buffer, dried and counted on a Packard Topcount by liquid scintillation counting.
Assay conditions were identical for assessing compound activities at other species. […] IC50 values for control peptides and test compounds were calculated utilizing GraphPad Prism™ software.
The reaction mixture was vortexed and incubated for 1 min at room temperature. After one min, the mixture was vortexed and allowed to incubate for an additional minute. 2 ml of 0.5 M acetic acid/1% BSA was added to the reaction tube and the mixture was added to a C18 Sep-Pak cartridge. The cartridge was washed with subsequent washes of 5 ml H2O and 5 ml 0.5M acetic acid and then eluted with 5×1 ml of 60% CH3CN/40% 0.5M acetic acid. The eluate was diluted with 3× volume of HPLC buffer A (0.1% TFA in H2O) and loaded onto a C18 column. […] The radioactive fractions (750 ed/fraction) are collected into clean polypropylene tubes containing 100 μl of 10% BSA. Fractions were assessed for biological activity by radioligand binding.

mouse GnRH receptor = biological target: T2, mouse GnRH receptor (Mus musculus, UniProt Q01776); assay: Radioligand binding, 125I-GnRH-A, 293 cells expressing mouse GnRH receptors
T2 construct: expressed in transfected cells; host or cells: 293 cells
T2 sequence (Q01776 1-327): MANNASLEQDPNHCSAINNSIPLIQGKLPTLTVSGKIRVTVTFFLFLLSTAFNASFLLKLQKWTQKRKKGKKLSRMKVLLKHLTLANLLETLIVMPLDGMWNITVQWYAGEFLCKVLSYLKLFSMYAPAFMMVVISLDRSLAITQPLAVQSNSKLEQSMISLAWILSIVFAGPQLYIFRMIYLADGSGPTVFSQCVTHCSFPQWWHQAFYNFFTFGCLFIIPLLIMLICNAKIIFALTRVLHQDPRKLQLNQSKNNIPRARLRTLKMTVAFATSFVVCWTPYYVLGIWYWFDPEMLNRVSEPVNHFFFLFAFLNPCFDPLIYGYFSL
Method in brief: (§1)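 Bound label captured on 0.1% polyethyleneimine-treated GF/C filters, washed three times with PBS, counted. IC50 derived; identical set-up for every species.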

human GnRH receptor = biological target: T3, human GnRH receptor (Homo sapiens, UniProt P30968); assay: Radioligand binding, 125I-GnRH-A displacement, membranes of HEK 293 cells with human GnRH receptor
T3 construct: expressed in transfected cells; host or cells: HEK 293 (hGnRH-R/293, from Dr. Stuart Sealfon)
T3 sequence (P30968 1-328): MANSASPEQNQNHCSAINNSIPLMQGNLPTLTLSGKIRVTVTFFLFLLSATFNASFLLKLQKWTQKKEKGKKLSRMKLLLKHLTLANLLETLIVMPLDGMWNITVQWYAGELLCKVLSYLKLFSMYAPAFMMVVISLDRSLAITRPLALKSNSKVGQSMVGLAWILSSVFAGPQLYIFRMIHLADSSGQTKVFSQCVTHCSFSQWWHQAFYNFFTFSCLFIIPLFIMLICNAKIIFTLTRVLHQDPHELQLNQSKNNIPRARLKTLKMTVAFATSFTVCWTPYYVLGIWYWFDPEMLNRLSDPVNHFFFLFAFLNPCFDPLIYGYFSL
Method in brief: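 After filtration and PBS washes, bound radioactivity was counted by scintillation and IC50 derived. Identical conditions applied for non-human receptors.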

rat GnRH receptor = biological target: T4, rat GnRH receptor (Rattus norvegicus, UniProt P30969); assay: Radioligand binding, 125I-GnRH-A, rat pituitary membranes; set-up: membranes were prepared from rat pituitary; from tissue; host or cells: rat pituitary
T4 sequence (P30969 1-327): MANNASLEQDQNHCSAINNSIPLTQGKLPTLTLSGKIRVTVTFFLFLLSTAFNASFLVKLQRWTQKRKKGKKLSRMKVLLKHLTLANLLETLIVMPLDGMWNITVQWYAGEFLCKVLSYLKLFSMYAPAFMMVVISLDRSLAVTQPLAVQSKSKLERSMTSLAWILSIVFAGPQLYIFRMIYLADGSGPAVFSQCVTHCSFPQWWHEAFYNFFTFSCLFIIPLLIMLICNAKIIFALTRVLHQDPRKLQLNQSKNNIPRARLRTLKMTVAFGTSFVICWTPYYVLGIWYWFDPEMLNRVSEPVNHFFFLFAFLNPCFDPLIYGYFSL
Method in brief: as §1

[2] = Metabolism rate, pmol/min/mg at 1 μM, human; format: in vitro ADME; conditions: 1 μM compound
[3] = Metabolism rate, pmol/min/mg at 1 μM, rat male; format: in vitro ADME; conditions: 1 μM compound
[4] = 10 mg/kg, p.o. 10 mg/kg, vehicle per footnote
[5] = means ± SE of at least three experiments performed in duplicate, read-out: Bovine IC50
[6] = means ± SE of at least three experiments performed in duplicate, read-out: Mouse IC50
[7] = means ± SE of at least three experiments performed in duplicate, read-out: Human IC50
[8] = means ± SE of at least three experiments performed in duplicate, read-out: Rat IC50
[9] = 20 mg/kg, p.o. 20 mg/kg, vehicle per footnote (DMSO/cremophor/saline)

| SMILES | IC50 (mouse GnRH receptor; read-out: mGnRH IC50) | IC50 (human GnRH receptor; read-out: hGnRH IC50) | IC50 (rat GnRH receptor; read-out: rGnRH IC50) | IC50 (bovine GnRH receptor; read-out: bGnRH IC50) | Human pmol/min/mg 1 μM [2] | Rat male pmol/min/mg 1 μM [3] | further results |
| --- | --- | --- | --- | --- | --- | --- | --- |
| Cc1cc2c(cc1Cc1ccc(C(=O)NCc3cccc(CNc4ccnc(NC[C@@H]5CCCO5)n4)c3)o1)C(C)(C)CCC2(C)C [Compound 176] | 4 nM | – | 3 nM | – | 273 pmol/min/mg | 2341 pmol/min/mg | T1/2 [1]: 2.8 h |
| Cc1cc2c(cc1Cc1ccc(C(=O)NCC3CCCC(CNC(=N)N)C3)o1)C(C)(C)CCC2(C)C (stereo not drawn) [Compound 22] | 1100 nM | 540 nM | 310 nM | 1710 nM | – | – | – |
| Cc1cc2c(cc1Cc1ccc(C(=O)NCc3cccc(CNc4ncc(C)c(NCC5CCCO5)n4)c3)o1)C(C)(C)CCC2(C)C (stereo not drawn) [Compound 151] | 5.2 nM | 65 nM | 7.2 nM | – | 225 pmol/min/mg | 3043 pmol/min/mg | – |
| Cc1cc2c(cc1Cc1ccc(C(=O)NC[C@H]3CC[C@H](C(N)=O)CC3)o1)C(C)(C)CCC2(C)C [Compound 156] | 400 nM | 24 nM | 270 nM | – | 867 pmol/min/mg | 2995 pmol/min/mg | – |
| CCNC(=O)[C@@H]1CCCN1C(=O)[C@H](CCCNC(=N)N)NC(=O)[C@H](CC(C)C)NC(=O)[C@@H](C)NC(=O)[C@H](Cc1ccc(O)cc1)NC(=O)[C@H](CO)NC(=O)[C@H](Cc1c[nH]c2ccccc12)NC(=O)[C@H](Cc1c[nH]cn1)NC(=O)[C@@H]1CCC(=O)N1 [GnRH-A, [des-Gly^10,D-Ala^6]GnRH ethylamide, reference compound] | – | – | – | – | – | – | IC50 (bovine GnRH receptor; [5]): 0.3 ± 0.05 nM; IC50 (mouse GnRH receptor; [6]): 0.22 ± 0.03 nM; IC50 (human GnRH receptor; [7]): 0.34 ± 0.06 nM; IC50 (rat GnRH receptor; [8]): 0.49 ± 0.1 nM |
| COC(=O)[C@H]1CC[C@H](CNC(=O)c2ccc(Cc3cc4c(cc3C)C(C)(C)CCC4(C)C)o2)CC1 [Compound 68] | 1010 nM | 90 nM | 890 nM | – | 2716 pmol/min/mg | 8125 pmol/min/mg | – |
| Cc1cc2c(cc1Cc1ccc(C(=O)NCC3CCC(CNc4nccc(NCC5CCCO5)n4)CC3)o1)C(C)(C)CCC2(C)C (stereo not drawn) [Compound 92] | 42 nM | 80 nM | 27 nM | – | 241 pmol/min/mg | 1282 pmol/min/mg | – |
| COc1cc(OC)c(NC(=O)c2ccc(Cc3c(C)cc(C)cc3C)o2)c(OC)c1 [Compound 168] | 130 nM | 230 nM | 130 nM | – | 407 pmol/min/mg | 1087 pmol/min/mg | half-life ([1]; 10 mg/kg): 108 min; Cmax [1, 9]: 300 nM; Tmax [1, 9]: 1 h; Fp.o. ([1]; p.o. 20 mg/kg, vehicle per footnote (DMSO/cremophor/saline)): 1% (20 mg/kg)^6 |
| Cc1cc2c(cc1Cc1ccc(C(=O)NCc3ccc(CNC(=N)N)cc3)o1)C(C)(C)CCC2(C)C [Compound 25] | 950 nM | 410 nM | 260 nM | 940 nM | – | – | – |

The next lines start with results.

| IC50 (mouse GnRH receptor; read-out: mGnRH IC50) | IC50 (human GnRH receptor; read-out: hGnRH IC50) | IC50 (rat GnRH receptor; read-out: rGnRH IC50) | IC50 (bovine GnRH receptor; read-out: bGnRH IC50) | Human pmol/min/mg 1 μM [2] | Rat male pmol/min/mg 1 μM [3] | SMILES | further results |
| --- | --- | --- | --- | --- | --- | --- | --- |
| 290 nM | 80 nM | 60 nM | – | – | – | Cc1ccc(CNC(=O)c2ccc(Cc3cc4c(cc3C)C(C)(C)CCC4(C)C)o2)cc1 [Compound 14] | half-life ([1]; 10 mg/kg): 84 min; Cmax [1, 4]: 1600 nM; Tmax [1, 4]: 1 h; IC50 (bovine GnRH receptor; [5]): 1050 ± 30 nM; IC50 (mouse GnRH receptor; [6]): 290 ± 70 nM; IC50 (human GnRH receptor; [7]): 80 ± 4 nM; IC50 (rat GnRH receptor; [8]): 60 ± 15 nM |
| 630 nM | 320 nM | 330 nM | 4000 nM | – | – | Cc1cc2c(cc1Cc1ccc(C(=O)NCc3cccnc3)o1)C(C)(C)CCC2(C)C [Compound 43] | IC50 (human GnRH receptor; second value marked * (mostly in parentheses), asterisk not explained, read-out: hGnRH IC50, value marked *): 130 nM |
| 370 nM | 230 nM | 150 nM | 1520 nM | – | – | Cc1ccccc1CNC(=O)c1ccc(Cc2cc3c(cc2C)C(C)(C)CCC3(C)C)o1 [Compound 50] | – |
| 115 nM | 55 nM | 40 nM | – | – | – | Cc1ccc(CNC(=O)c2ccc(Cc3cc4c(cc3C)C(C)(C)CCC4(C)C)o2)cc1C [Compound 18] | half-life ([1]; 10 mg/kg): 55 min; IC50 (bovine GnRH receptor; [5]): 460 ± 90 nM; IC50 (mouse GnRH receptor; [6]): 115 ± 25 nM; IC50 (human GnRH receptor; [7]): 55 ± 11 nM; IC50 (rat GnRH receptor; [8]): 40 ± 3 nM |
| 34 nM | 125 nM | 60 nM | 380 nM | – | – | Cc1cc2c(cc1Cc1ccc(C(=O)Nc3cccc4ncccc34)o1)C(C)(C)CCC2(C)C [Compound 64] | – |
| 560 nM | 550 nM | 150 nM | 760 nM | – | – | Cc1cc2c(cc1Cc1ccc(C(=O)NCc3cccc(CNC(=N)N)c3)o1)C(C)(C)CCC2(C)C [Compound 24] | – |
| 160 nM | 50 nM | 60 nM | 605 nM | – | – | CC(=O)c1cccc(NC(=O)c2ccc(Cc3cc4c(cc3C)C(C)(C)CCC4(C)C)o2)c1 [Compound 19] | half-life ([1]; 10 mg/kg): 43 min; IC50 (human GnRH receptor; [7]): 50 ± 3 nM |
| – | 290 nM | – | – | – | – | COc1cccc(CNC(=O)c2ccc(Cc3cc4c(cc3C)C(C)(C)CCC4(C)C)o2)c1OC [Compound 15] | IC50 (bovine GnRH receptor; [5]): 1000 ± 240 nM; IC50 (mouse GnRH receptor; [6]): 220 ± 50 nM; IC50 (human GnRH receptor; [7]): 100 ± 17 nM; IC50 (rat GnRH receptor; [8]): 70 ± 16 nM |
| 630 nM | 250 nM | 270 nM | 2930 nM | – | – | Cc1cc2c(cc1Cc1ccc(C(=O)NCc3cccc(F)c3)o1)C(C)(C)CCC2(C)C [Compound 53] | – |
| 660 nM | 280 nM | 270 nM | 2900 nM | – | – | Cc1cc2c(cc1Cc1ccc(C(=O)NCc3ccc(F)cc3F)o1)C(C)(C)CCC2(C)C [Compound 52] | – |
| 830 nM | 190 nM | 220 nM | 2340 nM | – | – | Cc1cc2c(cc1Cc1ccc(C(=O)NCc3cccc(Cl)c3)o1)C(C)(C)CCC2(C)C [Compound 39] | – |
| 105 nM | 56 nM | 108 nM | – | 353 pmol/min/mg | 2549 pmol/min/mg | COc1ccc(NC(=O)c2ccc(Cc3cc4c(cc3C)C(C)(C)CCC4(C)C)o2)c(OC)c1 [Compound 99] | – |
| 130 nM | 40 nM | 90 nM | – | 182 pmol/min/mg | 1692 pmol/min/mg | Cc1cc2c(cc1Cc1ccc(C(=O)Nc3ccc4[nH]ccc4c3)o1)C(C)(C)CCC2(C)C [Compound 96] | – |
